What all share (test): MTT viability assay (IC50)
Holding throughout (assay type): cell-based, human
(In general: Tetrazolium assays rely on reduction of a dye to a coloured formazan, in cell work by metabolically active cells.)

The subject of one assay is EAhy926. From the text:
(§1) The following cell lines used in this study were obtained from ATCC, unless specified otherwise: Human T lymphoma cells Jurkat, human mesothelioma cells Meso-I, MM-BI, Ist-Mes, Ist-Mes-2 (Pass, H. I. et al. Characteristics of nine newly derived mesothelioma cell lines. Ann. Thorac. Surg. 59, 835-844 (1995)), human breast cancer cells MCF-7 (erbB2-low) and MDA-MB-453 (erbB2-high), human colorectal cells HCT-116, human hepatocarcinoma cells Huh-7, mouse mesothelioma cells AE17 (Jackaman, C. et al. IL-2 intratumoral immunotherapy enhances CD8+ T cells that mediate destruction of tumor cells and tumor-associated vasculature: a novel mechanism for IL-2. J. Immunol. 171, […] (2003), human non-malignant mesothelial cells Met-5A, […] (Claycomb, W. C. et al. HL-1 cells: a cardiac muscle cell line that contracts and retains phenotypic characteristics of the adult cardiomyocyte. Proc. Natl. Acad. Sci. USA 95, 2979-2984 […]) and H9c2, and the human endothelial-like cells EAhy926 (Edgell, C. J., McDonald, C. C. & Graham, J. B. Permanent cell line expressing human factor VIII-related antigen established by hybridization. Proc. Natl. Acad. Sci. USA 80, 3734-3737 (1983)). Jurkat cells were grown in the RPMI medium while DMEM was used for other malignant cell lines and for Met-5A cells, supplemented with 10% FCS and antibiotics. HL-1 cells, maintained in fibronectin/gelatine-coated dishes, were grown in the Claycomb medium supplemented with noradrenalin (Claycomb, W. C. et al. HL-1 cells: a cardiac muscle cell line that contracts and retains phenotypic characteristics of the adult cardiomyocyte. Proc. Natl. Acad. Sci. USA 95, 2979-2984 […]), EAhy926 cells were grown in complete DMEM supplemented with HAT (Edgell, C. J., McDonald, C. C. & Graham, J. B. Permanent cell line expressing human factor VIII-related antigen established by hybridization. Proc. Natl. Acad. Sci. USA 80, 3734-3737 (1983)). Cells deficient in mtDNA (ρ^0 phenotype) were prepared as detailed in Weber, T. et al., (Mitochondria play a central role in apoptosis induced by α-tocopheryl succinate, an agent with anticancer activity. Comparison with receptor-mediated pro-apoptotic signaling. Biochemistry 42, 4277-4291 (2003)). Acquisition of the ρ^0 phenotype was confirmed by lack of expression by the cells of the mtDNA-encoded cytochrome c oxidase subunit II (COXII not shown). Chinese hamster lung fibroblasts deficient in complex I (B10 cells) (See, B. B. et al. Molecular remedy of complex I defects: rotenone-insensitive internal NADH-quinone oxidoreductase of Saccharomyces cerevisiae mitochondria restores the NADH oxidase activity of complex I-deficient mammalian cells. Proc. Natl. Acad. Sci. USA 95, 9167-9171 (1998)) and complex II (CybL^−/−; B9 cells) (Oostveen, F. G., Au, H. C., Meijer, P. J. & Scheffler, I. E. A Chinese hamster mutant cell line with a defect in the integral membrane protein CII-3 of complex II of the mitochondrial electron transport chain. J. Biol. Chem. 270: 26104-26108 (1995)) as well as the parental cells (B1 cells) (Oostveen, F. G., Au, H. C., Meijer, P. J. & Scheffler, I. E. A Chinese hamster mutant cell line with a defect in the integral membrane protein CII-3 of complex II of the mitochondrial electron transport chain. J. Biol. Chem. 270: 26104-26108 (1995)) were grown in DMEM with 10% FCS, antibiotics, 10 mg/ml glucose and non-essential aminoacids.
(§2) Toxicity of α-TOS, VE11S (“VES”), MitoVE3S, MitoVE5S, MitoVE7S, MitoVE9S, MitoVE11S (“MitoVES”), MitoVE11AE (“MitoVEAE”), MitoVE11F (“MitoVEF”), MitoVE11M (“MitoVEM”), and VES4TPP towards cancer cells was assessed on the basis of IC50, as detailed in Turanek, J., et al. ((2008). Liposomal formulation of vitamin E analogs as an efficient and selective anti-cancer treatment. Clin. Cancer Res. (submitted)). […]

The next assay has as its system HCT-116. As to conditions: HCT-116, ~60% confluency.
Text: as §1, §2

For another assay, the system named is Ist-Mes-2. The note with it: Ist-Mes-2, ~60% confluency.
Text: as §1, §2

The next assay deals with Ist-Mes. As to conditions: ~60% confluency.
Text: as §1, §2

Another assay relates to Jurkat.
Text: as §1, §2

For the next assay, the system named is MCF-7. The note with it: MCF-7, ~60% confluency.
Text: as §1, §2

For a further assay, the system named is MDA-MB-453. As to conditions: MDA-MB-453, ~60% confluency.
Text: as §1, §2

The subject of another assay is MM-BI. The note with it: ~60% confluency.
Text: as §1, §2

A further assay has as its system Meso-2. The note with it: Meso-2, ~60% confluency.
Text: as §1, §2

The mark [1] stands for this setting: EAhy926 treated at 100% confluency (top lines).
[2] abbreviates: EAhy926 treated at ~50% confluency (bottom lines).
[3] abbreviates: Jurkat, treated at 0.5 × 10^6 per ml, MTT viability curves.
Setting [4] is: Table VI: Jurkat 0.5 × 10^6 per ml, analogs added as EtOH solution, MTT.

A value given as a limit tells only on which side of the number the result lay.

What is called IC50 is the concentration that inhibits the measured activity by half. Lower therefore signals inhibition by little substance.

Take `Cc1c(C)c2c(c(C)c1OC(=O)CCC(=O)[O-])CCC(C)(CCCCCCCCCCC[P+](c1ccccc1)(c1ccccc1)c1ccccc1)O2` (stereo not shown) [MitoVE11S]: the IC50 in the assay with EAhy926 (setting [1]) stood at 32 ± 6 µM; in the assay on EAhy926 (setting [2]) it was 0.7 ± 0.2 µM; in the assay with HCT-116 it was 2.8 ± 0.8 µM; with Ist-Mes-2, 1.1 ± 0.25 µM; in the assay on Ist-Mes, 2.2 ± 0.3 µM; in the assay on Jurkat (setting [3]), 0.48 ± 0.1 µM. Also, the IC50 with Jurkat (setting [4]) is 0.48 ± 0.1 µM; in the assay on MCF-7, 1.9 ± 0.5 µM; in the assay on MDA-MB-453 it was 3.3 ± 0.7 µM; with MM-BI it was 1.4 ± 0.3 µM; in the assay on Meso-2 it was 2.4 ± 0.5 µM.
In the case of `Cc1c(C)c2c(c(C)c1OC(=O)CCC(=O)O)CC[C@@](C)(CCC[C@H](C)CCC[C@H](C)CCCC(C)C)O2` [α-TOS, α-tocopheryl succinate, reference compound], the IC50 with EAhy926 (setting [1]) is over 100 µM; in the assay on EAhy926 (setting [2]), 9.5 ± 2.7 µM; with HCT-116, 31 ± 6 µM; with Ist-Mes-2, 21 ± 3 µM; with Ist-Mes, 24 ± 5 µM; with Jurkat (setting [3]), 18 ± 3 µM. Also, the IC50 with Jurkat (setting [4]) stood at 18 ± 3 µM; with MCF-7, 22 ± 4 µM; in the assay on MDA-MB-453 it was 28 ± 5 µM; with MM-BI, 26 ± 4 µM; in the assay on Meso-2 it was 29 ± 5 µM.

The values are drawn from patent US8598145B2, “Mitochondrially delivered anti-cancer compounds” (priority 2008, dated 2013).
